Blank lines part the entries; values can stand above or below the molecule they belong to. The source made the active and inactive calls. The calls are words filed in the database; no cut-off is given here.
Assays:
[1] = target: T1, Prostaglandin E2 receptor EP3 subtype (Homo sapiens) (UniProt P43115); test: Antagonist activity at human EP3 receptor at 1 uM by FLIPR assay; format: functional; design: scale not given: the % may be the effect or the level left
T1 sequence (whole entry): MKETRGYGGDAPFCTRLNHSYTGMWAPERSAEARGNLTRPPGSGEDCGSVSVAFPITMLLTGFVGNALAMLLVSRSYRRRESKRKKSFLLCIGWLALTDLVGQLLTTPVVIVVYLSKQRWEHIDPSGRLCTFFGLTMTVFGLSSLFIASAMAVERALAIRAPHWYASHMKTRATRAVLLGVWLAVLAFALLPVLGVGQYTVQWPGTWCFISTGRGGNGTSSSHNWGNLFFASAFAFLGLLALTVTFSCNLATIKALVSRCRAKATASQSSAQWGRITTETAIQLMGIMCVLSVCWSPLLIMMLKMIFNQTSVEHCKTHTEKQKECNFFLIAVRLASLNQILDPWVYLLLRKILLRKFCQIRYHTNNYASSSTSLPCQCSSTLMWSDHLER

[2] = target: T1, Prostaglandin E2 receptor EP3 subtype (Homo sapiens); test: Antagonist activity at human EP3 receptor at 0.1 uM by FLIPR assay; format: functional; design: scale not given: the % may be the effect or the level left
[3] = target: T2, Prostaglandin E2 receptor EP3 subtype (Homo sapiens, UniProt P43115); test: Displacement of [3H]PGE2 from human EP3 receptor
T2 sequence (P43115 whole entry): T1 sequence (whole entry)

[4] = target: T1, Prostaglandin E2 receptor EP3 subtype (Homo sapiens); test: Displacement of [3H]PGE2 from human EP3 receptor in presence of 10% human serum
[5] = Protein binding in plasma by HSA-HPLC method; format: ADME, cell-free; details: human, read-out: PB (converted)
[6] = Metabolic stability in rat liver microsomes assessed as compound remaining after 30 mins; format: ADME, Microsome; details: read-out: Stability
[7] = Metabolic stability in human liver microsomes assessed as compound remaining after 30 mins; format: ADME, Microsome; details: read-out: Stability
Platelet [8] = test: Inhibition of PGE2/collagen-induced platelet aggregation rat platelets rich plasma; format: functional
[9] = target: T3, Prostaglandin E2 receptor EP1 subtype (Homo sapiens) (UniProt P34995); test: Activity at EP1 receptor at 10 uM by FLIPR assay
T3 sequence (whole entry): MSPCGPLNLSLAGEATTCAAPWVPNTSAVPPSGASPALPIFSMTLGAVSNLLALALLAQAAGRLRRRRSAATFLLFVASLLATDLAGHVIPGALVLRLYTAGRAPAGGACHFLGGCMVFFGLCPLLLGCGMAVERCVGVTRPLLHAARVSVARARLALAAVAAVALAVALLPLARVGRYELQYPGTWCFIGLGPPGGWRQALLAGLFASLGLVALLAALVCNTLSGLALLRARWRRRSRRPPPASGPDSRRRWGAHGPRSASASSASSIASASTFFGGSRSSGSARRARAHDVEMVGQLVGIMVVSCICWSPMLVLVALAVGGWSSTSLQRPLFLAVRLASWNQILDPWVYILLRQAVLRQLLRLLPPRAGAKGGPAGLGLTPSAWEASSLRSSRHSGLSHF

[10] = target: T3, Prostaglandin E2 receptor EP1 subtype (Homo sapiens); test: Activity at EP1 receptor at 1 uM by FLIPR assay
[11] = target: T3, Prostaglandin E2 receptor EP1 subtype (Homo sapiens); test: Activity at EP1 receptor at 0.1 uM by FLIPR assay
[12] = target: T4, Prostaglandin E2 receptor EP4 subtype (Homo sapiens, UniProt P35408); test: Activity at EP4 receptor at 10 uM by FLIPR assay
[13] = target: T4, Prostaglandin E2 receptor EP4 subtype; test: Activity at EP4 receptor at 1 uM by FLIPR assay
[14] = target: T4, Prostaglandin E2 receptor EP4 subtype; test: Activity at EP4 receptor at 0.1 uM by FLIPR assay
[15] = target: T5, Prostaglandin F2-alpha receptor (Homo sapiens, UniProt P43088); test: Activity at FP receptor at 10 uM by FLIPR assay
[16] = target: T5, Prostaglandin F2-alpha receptor; test: Activity at FP receptor at 1 uM by FLIPR assay
[17] = target: T5, Prostaglandin F2-alpha receptor; test: Activity at FP receptor at 0.1 uM by FLIPR assay
[18] = target: T6, Thromboxane A2 receptor (Homo sapiens) (UniProt P21731); test: Activity at TP receptor at 10 uM by FLIPR assay
T6 sequence (whole entry): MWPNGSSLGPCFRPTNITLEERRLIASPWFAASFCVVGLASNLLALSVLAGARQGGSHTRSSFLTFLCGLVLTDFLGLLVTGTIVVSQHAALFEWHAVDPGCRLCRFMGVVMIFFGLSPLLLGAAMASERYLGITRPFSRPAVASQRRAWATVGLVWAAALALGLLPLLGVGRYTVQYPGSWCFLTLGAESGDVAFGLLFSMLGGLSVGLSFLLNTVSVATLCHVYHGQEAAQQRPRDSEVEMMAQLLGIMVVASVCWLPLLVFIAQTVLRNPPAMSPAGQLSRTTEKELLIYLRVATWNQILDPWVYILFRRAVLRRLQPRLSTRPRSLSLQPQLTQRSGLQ

[19] = target: T6, Thromboxane A2 receptor (Homo sapiens); test: Activity at TP receptor at 1 uM by FLIPR assay
[20] = target: T6, Thromboxane A2 receptor (Homo sapiens); test: Activity at TP receptor at 0.1 uM by FLIPR assay
Platelet [21] = test: Inhibition of PGE2/collagen-induced platelet aggregation human platelets rich plasma; format: functional
[22] = target: T7, Prostaglandin E2 receptor EP1 subtype (Homo sapiens, UniProt P34995); test: Binding affinity to human EP1 receptor by radioligand displacement assay
T7 sequence (P34995 whole entry): T3 sequence (whole entry)

[23] = target: Prostaglandin E2 receptor EP2 subtype (Homo sapiens, UniProt P43116); test: Binding affinity to human EP2 receptor by radioligand displacement assay
[24] = target: T4, Prostaglandin E2 receptor EP4 subtype; test: Binding affinity to human EP4 receptor by radioligand displacement assay
[25] = target: T5, Prostaglandin F2-alpha receptor; test: Binding affinity to human FP receptor by radioligand displacement assay
Prostacyclin receptor = Prostacyclin receptor (Homo sapiens, UniProt P43119); test: Binding affinity to human IP receptor by radioligand displacement assay
[26] = target: T1, Prostaglandin E2 receptor EP3 subtype (Homo sapiens); test: Full displacement of [3H]PGE2 from human EP3 receptor at 20 uM
[27] = target: T1, Prostaglandin E2 receptor EP3 subtype (Homo sapiens); test: Antagonist activity at human EP3 receptor at 10 uM by FLIPR assay; format: functional; design: scale not given: the % may be the effect or the level left

T5 sequence (P43088 whole entry): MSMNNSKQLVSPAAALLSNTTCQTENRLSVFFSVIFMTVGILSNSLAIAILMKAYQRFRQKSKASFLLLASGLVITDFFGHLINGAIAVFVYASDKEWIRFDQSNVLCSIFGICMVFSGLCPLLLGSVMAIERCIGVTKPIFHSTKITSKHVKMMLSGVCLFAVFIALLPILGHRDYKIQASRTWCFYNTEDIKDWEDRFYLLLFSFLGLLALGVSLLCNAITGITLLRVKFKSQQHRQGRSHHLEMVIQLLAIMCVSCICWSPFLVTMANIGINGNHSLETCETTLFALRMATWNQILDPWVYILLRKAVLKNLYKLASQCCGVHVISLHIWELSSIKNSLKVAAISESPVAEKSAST
T4 sequence (P35408 whole entry): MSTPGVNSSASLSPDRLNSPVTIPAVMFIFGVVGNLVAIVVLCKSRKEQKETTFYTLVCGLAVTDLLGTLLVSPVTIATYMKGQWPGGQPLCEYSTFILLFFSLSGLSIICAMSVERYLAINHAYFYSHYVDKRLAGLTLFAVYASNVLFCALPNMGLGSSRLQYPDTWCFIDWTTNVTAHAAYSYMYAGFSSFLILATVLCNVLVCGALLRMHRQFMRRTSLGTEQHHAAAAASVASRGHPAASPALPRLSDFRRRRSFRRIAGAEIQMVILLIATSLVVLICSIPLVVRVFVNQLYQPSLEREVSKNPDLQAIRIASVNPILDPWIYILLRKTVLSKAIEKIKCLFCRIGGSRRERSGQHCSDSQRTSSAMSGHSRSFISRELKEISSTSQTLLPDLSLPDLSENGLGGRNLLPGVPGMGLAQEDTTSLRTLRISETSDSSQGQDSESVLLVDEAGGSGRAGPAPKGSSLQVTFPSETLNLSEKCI
Sequence of Prostaglandin E2 receptor EP2 subtype (P43116 whole entry): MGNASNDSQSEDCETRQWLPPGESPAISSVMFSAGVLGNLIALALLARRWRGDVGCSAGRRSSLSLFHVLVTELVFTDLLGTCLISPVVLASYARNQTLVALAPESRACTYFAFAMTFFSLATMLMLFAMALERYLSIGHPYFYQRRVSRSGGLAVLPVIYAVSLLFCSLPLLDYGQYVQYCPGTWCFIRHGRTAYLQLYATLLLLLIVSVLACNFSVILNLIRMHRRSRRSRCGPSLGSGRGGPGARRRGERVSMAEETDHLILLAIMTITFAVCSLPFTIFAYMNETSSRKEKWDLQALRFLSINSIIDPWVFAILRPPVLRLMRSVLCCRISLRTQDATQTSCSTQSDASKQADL
Sequence of Prostacyclin receptor (P43119 whole entry): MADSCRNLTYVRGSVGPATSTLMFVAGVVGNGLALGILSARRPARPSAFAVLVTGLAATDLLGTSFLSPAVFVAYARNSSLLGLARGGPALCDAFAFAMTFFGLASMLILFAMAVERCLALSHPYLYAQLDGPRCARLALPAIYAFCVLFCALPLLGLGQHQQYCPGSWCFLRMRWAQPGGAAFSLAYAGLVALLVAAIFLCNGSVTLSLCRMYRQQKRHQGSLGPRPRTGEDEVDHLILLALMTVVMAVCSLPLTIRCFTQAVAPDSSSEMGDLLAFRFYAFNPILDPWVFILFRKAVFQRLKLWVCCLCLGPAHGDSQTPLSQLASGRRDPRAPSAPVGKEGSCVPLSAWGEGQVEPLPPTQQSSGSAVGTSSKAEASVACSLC

- IC50 [3]: 4 nM
- fold change (FC) [4]: 3.5
- fraction unbound [5]: 0.028
- remaining at 0.5 h [6]: 44.8%
- remaining at 0.5 h [7]: 72.1%
- IC50 (Platelet [8]): 2860 nM
- Activity [9]: 100%
- Activity [10]: 16%
- Activity [11]: -2%
- Activity [12]: -7%
- Activity [13]: -22%
- Activity [14]: -26%
- Activity [15]: -1%
- Activity [16]: -2%
- Activity [17]: -15%
- Activity [18]: 56%
- Activity [19]: 0%
- Activity [20]: 3%
Structure (SMILES): Cc1cn(Cc2ccc(Cl)cc2Cl)c2c(-c3nnc(NS(=O)(=O)c4ccc(Cl)c(Cl)c4)o3)cc(F)cc12

- Activity [26]: inactive
- IC50 [3]: 1320 nM
- fold change (FC) [4]: 1
Structure (SMILES): Cc1cn(Cc2ccc(Cl)cc2Cl)c2c(-c3nnc(NC(=O)c4ccc(Cl)cc4Cl)o3)cc(F)cc12

More lines, now with the values behind:

Structure (SMILES): COc1ccc(Cn2cc(C)c3cc(F)cc(-c4nnc(NS(=O)(=O)c5ccc(F)c(F)c5)o4)c32)cc1
- Activity [1]: 99%
- Activity [2]: 35%

Structure (SMILES): Cc1cn(Cc2ccc(Cl)cc2Cl)c2c(-c3cc(NS(=O)(=O)c4ccc(F)c(F)c4)no3)cc(F)cc12
- IC50 [3]: 1 nM
- fold change (FC) [4]: 12
- fraction unbound [5]: 0.016
- remaining at 0.5 h [6]: 51%
- remaining at 0.5 h [7]: 46.8%
- IC50 (Platelet [8]): 3850 nM
- IC50 (Platelet [21]): 785 nM
- IC50 [22]: > 20000 nM
- IC50 [23]: 19800 nM
- IC50 [24]: 18600 nM
- IC50 [25]: 600 nM
- IC50 (Prostacyclin receptor): > 20000 nM

Structure (SMILES): COc1cccc(Cn2cc(C)c3cc(F)cc(-c4nnc(NS(=O)(=O)c5ccc(F)cc5)o4)c32)c1
- Activity [2]: 62%
- Activity [27]: 99%

Structure (SMILES): Cc1cn(Cc2ccc3c(c2)OCCO3)c2c(-c3nnc(NS(=O)(=O)c4ccc(F)cc4)o3)cc(F)cc12
- Activity [2]: 11%
- Activity [27]: 48%

From ChEMBL document CHEMBL1154363, “Heterocyclic 1,7-disubstituted indole sulfonamides are potent and selective human EP3 receptor antagonists” (Bioorg Med Chem Lett, 2009)
